Reference: ChEMBL document CHEMBL5465560, “Selectivity Literature for EUbOPEN Chemogenomic Library” (2024)

Assays:
[1] = target: T1, Dual specificity mitogen-activated protein kinase kinase 5 (Homo sapiens) (UniProt Q13163); assay: Selectivity interaction (KinomeScan (DiscoverX)) EUB0001049a MAP2K5; conditions: at 1 µM
T1 sequence (whole entry): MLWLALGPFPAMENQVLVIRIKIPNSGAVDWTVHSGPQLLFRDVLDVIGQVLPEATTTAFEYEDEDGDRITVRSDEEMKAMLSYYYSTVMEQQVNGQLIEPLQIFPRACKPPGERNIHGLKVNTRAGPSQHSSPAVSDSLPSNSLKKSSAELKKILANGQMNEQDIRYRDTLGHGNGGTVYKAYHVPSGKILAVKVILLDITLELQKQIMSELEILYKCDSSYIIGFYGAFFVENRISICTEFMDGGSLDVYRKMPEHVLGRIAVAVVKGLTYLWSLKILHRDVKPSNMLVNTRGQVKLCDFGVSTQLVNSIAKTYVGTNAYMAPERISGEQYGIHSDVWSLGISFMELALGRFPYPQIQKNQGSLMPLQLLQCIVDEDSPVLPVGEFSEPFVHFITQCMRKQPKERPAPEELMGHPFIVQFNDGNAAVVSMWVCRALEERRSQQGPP

[2] = target: RAC-beta serine/threonine-protein kinase (Homo sapiens) (UniProt P31751); assay: Selectivity interaction (KinomeScan (DiscoverX)) EUB0001049a AKT2; conditions: at 1 µM
[3] = target: Phosphatidylinositol 4-phosphate 3-kinase C2 domain-containing subunit beta (Homo sapiens) (UniProt O00750); assay: Selectivity interaction (Ambit KINOMEscan and KiNATiv profiling in Jurkat cells) EUB0000090b PIK3C2B; assay type: cell-based; conditions: at 1 µM
[4] = target: Tyrosine-protein kinase CSK (Homo sapiens) (UniProt P41240); assay: Selectivity interaction (Ambit KINOMEscan and KiNATiv profiling in Jurkat cells) EUB0000090b CSK; assay type: cell-based; conditions: at 1 µM
[5] = target: Calcium/calmodulin-dependent protein kinase type 1D (Homo sapiens) (UniProt Q8IU85); assay: Selectivity interaction (ActivX KiNativ screen (kinase selectivity in THP-1 cell lysates)) EUB0000639a CAMK1D; assay type: subcellular; conditions: lysate
Sequence of Calcium/calmodulin-dependent protein kinase type 1D (Homo sapiens) (Q8IU85 whole entry, looked up): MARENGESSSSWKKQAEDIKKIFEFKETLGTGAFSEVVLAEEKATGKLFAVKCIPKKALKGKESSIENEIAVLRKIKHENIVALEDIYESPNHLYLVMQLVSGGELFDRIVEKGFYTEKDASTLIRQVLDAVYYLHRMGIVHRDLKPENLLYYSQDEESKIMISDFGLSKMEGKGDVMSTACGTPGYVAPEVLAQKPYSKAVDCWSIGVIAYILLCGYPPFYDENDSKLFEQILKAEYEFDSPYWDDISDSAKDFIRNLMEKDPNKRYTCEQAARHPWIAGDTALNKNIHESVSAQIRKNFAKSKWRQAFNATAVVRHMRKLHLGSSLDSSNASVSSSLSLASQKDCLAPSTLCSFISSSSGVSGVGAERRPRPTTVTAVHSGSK

[6] = target: Serine/threonine-protein kinase mTOR (Homo sapiens, UniProt P42345); assay: Selectivity interaction (Kinase panel (Invitrogen)) EUB0000639a MTOR; conditions: at 200 nM
[7] = target: Tyrosine-protein kinase ABL1 (Homo sapiens, UniProt P00519); assay: Selectivity interaction (Kinase panel (literature)) EUB0001199aCl ABL1; conditions: at 1 µM
[8] = target: Leukocyte tyrosine kinase receptor (Homo sapiens, UniProt P29376); assay: Selectivity interaction (Kinase panel (Z-LYTE Assay)) EUB0001632a LTK; conditions: at 10 µM
[9] = target: Receptor-interacting serine/threonine-protein kinase 2 (Homo sapiens, UniProt O43353); assay: Selectivity interaction (LanthaScreen Eu Kinase Binding Assay) EUB0001632a RIPK2; conditions: at 10 µM
[10] = target: T2, Mast/stem cell growth factor receptor Kit (Homo sapiens, UniProt P10721); assay: Selectivity interaction (KinomeScan (DiscoverX)) EUB0000229b KIT; conditions: at 10 µM
T2 sequence (P10721 whole entry): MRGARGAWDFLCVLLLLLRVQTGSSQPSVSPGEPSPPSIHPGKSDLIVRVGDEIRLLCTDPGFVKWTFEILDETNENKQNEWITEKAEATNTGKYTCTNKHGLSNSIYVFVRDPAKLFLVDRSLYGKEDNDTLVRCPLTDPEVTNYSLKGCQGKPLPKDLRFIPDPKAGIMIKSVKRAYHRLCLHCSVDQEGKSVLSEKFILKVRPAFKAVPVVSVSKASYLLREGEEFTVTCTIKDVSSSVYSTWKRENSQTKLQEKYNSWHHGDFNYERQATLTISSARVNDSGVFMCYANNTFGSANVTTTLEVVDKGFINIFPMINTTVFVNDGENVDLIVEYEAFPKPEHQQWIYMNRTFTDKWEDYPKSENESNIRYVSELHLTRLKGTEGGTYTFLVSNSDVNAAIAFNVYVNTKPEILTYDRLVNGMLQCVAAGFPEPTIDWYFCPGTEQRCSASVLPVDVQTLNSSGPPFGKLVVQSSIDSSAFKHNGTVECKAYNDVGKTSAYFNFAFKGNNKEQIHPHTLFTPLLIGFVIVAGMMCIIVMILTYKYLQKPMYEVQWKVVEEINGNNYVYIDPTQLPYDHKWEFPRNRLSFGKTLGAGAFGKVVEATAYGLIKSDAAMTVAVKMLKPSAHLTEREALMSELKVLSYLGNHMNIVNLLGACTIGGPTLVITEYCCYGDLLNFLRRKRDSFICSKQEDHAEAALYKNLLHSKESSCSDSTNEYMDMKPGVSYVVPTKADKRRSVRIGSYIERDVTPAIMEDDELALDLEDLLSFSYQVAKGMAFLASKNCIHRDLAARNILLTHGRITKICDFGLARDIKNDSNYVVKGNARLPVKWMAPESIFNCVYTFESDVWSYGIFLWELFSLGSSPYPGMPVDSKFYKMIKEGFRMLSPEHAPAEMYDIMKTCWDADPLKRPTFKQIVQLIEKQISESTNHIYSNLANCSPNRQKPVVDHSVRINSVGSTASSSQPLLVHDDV

[11] = target: Casein kinase II subunit alpha (Homo sapiens, UniProt P68400); assay: Selectivity interaction (KinomeScan (DiscoverX)) EUB0000092b CSNK2A1; conditions: at 10 µM
[12] = target: Tyrosine-protein kinase Srms (Homo sapiens) (UniProt Q9H3Y6); assay: Selectivity interaction (KinomeScan (DiscoverX)) EUB0000092b SRMS; conditions: at 10 µM
[13] = target: MAP kinase-activated protein kinase 3 (Homo sapiens) (UniProt Q16644); assay: Selectivity interaction (Upstate Kinase Profiler service (Millipore)) EUB0000056c MAPKAPK3; conditions: at 1 µM
Sequence of MAP kinase-activated protein kinase 3 (Homo sapiens) (Q16644 whole entry, looked up): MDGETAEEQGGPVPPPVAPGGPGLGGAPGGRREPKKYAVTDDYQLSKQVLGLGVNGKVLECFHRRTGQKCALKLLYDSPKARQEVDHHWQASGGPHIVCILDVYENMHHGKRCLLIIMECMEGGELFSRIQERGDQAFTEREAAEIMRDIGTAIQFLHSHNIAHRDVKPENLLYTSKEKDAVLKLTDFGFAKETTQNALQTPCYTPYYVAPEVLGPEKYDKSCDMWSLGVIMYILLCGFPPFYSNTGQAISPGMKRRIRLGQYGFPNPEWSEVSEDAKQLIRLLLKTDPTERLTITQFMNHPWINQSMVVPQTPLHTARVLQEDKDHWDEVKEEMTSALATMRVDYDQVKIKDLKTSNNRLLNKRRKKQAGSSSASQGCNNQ

[14] = target: Serine/threonine-protein kinase Nek6 (Homo sapiens) (UniProt Q9HC98); assay: Selectivity interaction (KinomeScan (DiscoverX)) EUB0000045b NEK6
Sequence of Serine/threonine-protein kinase Nek6 (Homo sapiens) (Q9HC98 whole entry): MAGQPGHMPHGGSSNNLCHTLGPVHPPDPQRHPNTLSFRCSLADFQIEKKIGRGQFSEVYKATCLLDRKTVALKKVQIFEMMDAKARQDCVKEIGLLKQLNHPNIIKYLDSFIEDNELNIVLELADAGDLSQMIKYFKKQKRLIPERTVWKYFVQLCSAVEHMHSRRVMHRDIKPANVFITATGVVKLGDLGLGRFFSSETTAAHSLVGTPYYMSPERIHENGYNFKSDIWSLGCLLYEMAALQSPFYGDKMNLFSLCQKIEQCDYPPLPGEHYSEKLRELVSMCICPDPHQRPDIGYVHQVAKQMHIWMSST

[15] = test system: Mast/stem cell growth factor receptor Kit (Homo sapiens), P10721 [A829P]; assay: (§1) Selectivity interaction (KinomeScan (DiscoverX)) EUB0001619a KIT; conditions: at 1 µM
[16] = test system: Mast/stem cell growth factor receptor Kit (Homo sapiens), P10721 [D816H]; assay: as §1; conditions: at 1 µM
[17] = test system: Mast/stem cell growth factor receptor Kit (Homo sapiens), P10721 [L576P]; assay: as §1; conditions: at 1 µM
Sequence of Mast/stem cell growth factor receptor Kit (Homo sapiens), P10721 [L576P] (P10721 whole entry L576P): as the sequence (P10721 whole entry) above, with L576P counted along it

[18] = test system: Mast/stem cell growth factor receptor Kit (Homo sapiens), P10721 [V559D,T670I]; assay: as §1; conditions: at 1 µM
[19] = test system: Mast/stem cell growth factor receptor Kit (Homo sapiens), P10721 [D816V]; assay: as §1; conditions: at 1 µM
Sequence of Mast/stem cell growth factor receptor Kit (Homo sapiens), P10721 [D816V] (P10721 whole entry D816V): as the sequence (P10721 whole entry) above, with D816V counted along it

[20] = test system: Mast/stem cell growth factor receptor Kit (Homo sapiens), P10721 [V559D,V654A]; assay: as §1; conditions: at 1 µM
[21] = test system: Mast/stem cell growth factor receptor Kit (Homo sapiens), P10721 [V559D]; assay: as §1; conditions: at 1 µM
Sequence of Mast/stem cell growth factor receptor Kit (Homo sapiens), P10721 [V559D] (P10721 whole entry V559D): as the sequence (P10721 whole entry) above, with V559D counted along it

[22] = target: T2, Mast/stem cell growth factor receptor Kit; assay: as §1; conditions: at 1 µM
Misshapen-like kinase 1 = Misshapen-like kinase 1 (Homo sapiens, UniProt Q8N4C8); assay: Selectivity interaction (KinomeScan (DiscoverX)) EUB0000618a MINK1; conditions: at 10 µM
[23] = target: T3, Histone-arginine methyltransferase CARM1 (Homo sapiens, UniProt Q86X55); assay: Selectivity interaction (Western Blot (dimethylation of BAF155 (BAF155me2a/BAF155) in NCI-H929 cells)) EUB0000255b CARM1; assay type: cell-based
T3 sequence (Q86X55 whole entry): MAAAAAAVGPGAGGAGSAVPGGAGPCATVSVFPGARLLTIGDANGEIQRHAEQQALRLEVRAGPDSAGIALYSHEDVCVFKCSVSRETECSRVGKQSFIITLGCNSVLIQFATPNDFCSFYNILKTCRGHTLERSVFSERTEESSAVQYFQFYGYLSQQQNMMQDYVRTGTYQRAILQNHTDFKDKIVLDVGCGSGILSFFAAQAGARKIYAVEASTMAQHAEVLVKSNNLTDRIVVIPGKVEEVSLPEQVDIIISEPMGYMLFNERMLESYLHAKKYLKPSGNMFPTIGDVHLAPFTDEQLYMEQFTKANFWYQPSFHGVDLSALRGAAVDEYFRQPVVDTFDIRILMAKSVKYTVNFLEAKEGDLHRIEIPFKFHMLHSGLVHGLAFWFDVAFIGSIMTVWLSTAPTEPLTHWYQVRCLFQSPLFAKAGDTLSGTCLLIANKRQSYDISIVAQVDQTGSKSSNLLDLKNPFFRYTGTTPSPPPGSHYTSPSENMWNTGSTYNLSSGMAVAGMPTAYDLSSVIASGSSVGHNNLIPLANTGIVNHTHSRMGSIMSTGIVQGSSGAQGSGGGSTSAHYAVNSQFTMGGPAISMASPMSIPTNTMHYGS

[24] = target: Acetylcholine receptor subunit alpha (Homo sapiens, UniProt P02708); assay: Selectivity interaction (Panel of kinases, GPCRs, ion channels and transporters (enzymatic assay)) EUB0000223bCl CHRNA1

COc1cc(Nc2nc(C)cc(-c3cnn4nc(OC)ccc34)n2)cc(C(F)(F)F)c1
% of control [1]: 85% | % of control [2]: 100%

CN(C)C/C=C/C(=O)Nc1ccc(C(=O)N2CCCC(Nc3ncc(Cl)c(-c4c[nH]c5ccccc45)n3)C2)cc1 (stereo not given)
% of control [3]: 94% | % of control [4]: 95%

CC[C@@H]1[C@H](F)C(=O)N[C@@H]1COc1nccc2cc(C(N)=O)c(OC)cc12 [ZIMLOVISERTIB]
% of inhibition ([5]; at 0.01 µM): 7.8% | % of inhibition ([5]; at 0.04 µM): 5.4% | % of inhibition ([5]; at 0.2 µM): 9.3% | % of inhibition ([5]; at 1 µM): 18.4% | % of inhibition ([5]; at 5 µM): 34.3% | % of inhibition [6]: 3.37%

CN1Cc2nccc(-c3cn(C)nc3-c3ccc(F)cc3)c2C1=O
% of inhibition [7]: 1%

Cn1cc(-n2cnc3c(NCc4nc5cc(Cl)c(Cl)cc5[nH]4)nc(N4CCOCC4)nc32)cn1
% of control [8]: 3.23% | % of inhibition [9]: -13.3%

COc1cc(N(C)c2ccnc3ccc(C(F)(F)F)cc23)cc(OC)c1OC
% binding [10]: 99%

CCC(=O)N1CCN(c2ccc(-n3c(=O)ccc4cnc5ccc(-c6cnc7ccccc7c6)cc5c43)cc2C(F)(F)F)CC1
% of control [11]: 94% | % of control [12]: 92%

Cc1ccc(-c2ccc3c(ccc4sc5c(c43)NC[C@@H](C)NC5=O)n2)cn1
% of inhibition [13]: 89%

C=CC(=O)Nc1cc(-n2c(=O)ccc3cnc4ccc(-c5ccc(NS(C)(=O)=O)cc5)cc4c32)ccc1C
% of control ([14]; at 1 µM): 100% | % of control ([14]; at 10 µM): 74%

N#Cc1cccc(-c2c[nH]c3ncnc(N4CCOCC4)c23)c1
% of control [15]: 50% | % of control [16]: 92% | % of control [17]: 89% | % of control [18]: 100% | % of control [19]: 99% | % of control [20]: 72% | % of control [21]: 100% | % of control [22]: 100%

O[C@H]1CC[C@H](Nc2ncc3nc(Nc4c(F)cc(F)cc4F)n([C@H]4CCOC4)c3n2)CC1
% of control (Misshapen-like kinase 1): 71%

COCCN1CCC(c2cc(CN(C)C(=O)c3cccc(Oc4ccccc4)c3)ccn2)CC1
IC50 [23]: > 3 nM

COc1cc(C(=O)N2CC[C@@H](O)[C@@H](N)C2)cc2nc(-c3cc4ccccc4n3CC3CC3)n(C)c12
pXC50 [24]: < 4.3 M
